Entries after “also recorded” stand apart in the source; their conditions may differ. Where no end group is shown, it is not given here.
What was measured:
ERK [1] = test: Growth factor-induced ERK phosphorylation in HUVEC (western blot); type: cell-based, Human
Experimental: (§1) Cell culture. Human umbilical vein endothelial cells (HUVEC) and pulmonary aortic smooth muscle cells (PASMC) were obtained from Clonetics and maintained in endothelial cell basal medium-2, (EBM-2; Clonetics) and smooth muscle medium-2 (SmGM-2; Clonetics), respectively. Cells were cultured at 37° C. under a humidified atmosphere containing 5% CO2. For experimental purposes, cells were plated in 8 100-mm plastic dishes at 5,000 cells/cm^2 and were grown to confluence before overnight serum starvation. Cells were treated with vehicle or with a PCK3145 derivative diluted in 0.1 N NaOH, and stimulated with 50 ng/ml VEGF, PDGF or with 1 μM S1P.
Immunoprecipitation and immunoblotting procedures. After treatment, cells were washed once with phosphate-buffered saline (PBS) containing 1 mM sodium orthovanadate and were incubated in the same medium for 1 h at 4° C. The cells were solubilized on ice in lysis buffer (150 mM NaCl, 10 mM Tris-HCl, pH 7.4, 1 mM EDTA, 1 mM EGTA, 0.5% Nonidet P-40, 1% Triton X-100) containing 1 mM sodium orthovanadate. The cells were then scraped from the culture dishes and the resulting lysates were clarified by centrifugation at 10,000 g for 10 min. Protein concentrations were determined using the micro bicinchoninic acid method. For immunoprecipitation studies, lysates were clarified by a 1 h incubation at 4° C. with a mixture of Protein A/Protein G Sepharose beads. After removal of the Sepharose beads by low-speed centrifugation, identical amounts of protein (200 μg) from each sample were transferred to fresh tubes and incubated in lysis buffer overnight at 4° C. in the presence of 2 μg/ml of specific antibodies. Immunocomplexes were collected by incubating the mixture with 25 μl (50% suspension) of Protein A—(rabbit primary antibody) or Protein G—(mouse primary antibody) Sepharose beads, for 2 h. Nonspecifically-bound material was removed by washing the beads three times in 1 ml of lysis buffer containing 1 mM sodium orthovanadate, and bound material was solubilized in 25 μl of two-fold concentrated Laemmli sample buffer, boiled 5 min, and resolved by SDS-PAGE. The proteins were transferred onto polyvinylidene difluoride (PVDF) membranes, blocked 1 h at room temperature with Tris-buffered saline/Tween 20 (147 mM NaCl, 20 mM Tris/HCl, pH 7.5, and 0.1% Tween 20) containing 2% bovine serum albumin and incubated overnight at 4° C. with primary antibody.
(§2) VEGF is a strong activator of ERKs (Extracellular-signal-Regulated protein Kinases) 1 and 2 via VEGF receptor 2. In order to test the ability of the PCK3145 derivative in potentially antagonizing VEGF-mediated ERK phosphorylation, serum-starved quiescent endothelial cells (HUVEC) were incubated with vehicle (phosphate-buffered saline (PBS) pH 7.4) or PCK3145 derivative (300 μg/ml) for 24 h and then stimulated with VEGF, bFGF (basic Fibroblast Growth Factor) or S1P (sphingosine-1-phosphate). Cells were washed with PBS containing NaF/Na3VO4 and incubated in the same medium buffer for 1 h at 4° C. The cells were scraped from the culture dishes and the resulting lysates clarified by centrifugation. Western blotting and immunodetection using anti-phosphoERK and anti-ERK antibodies was then performed.

PDGF receptor (PDGFR) = target: T1, PDGF receptor (PDGFR) (Homo sapiens, UniProt P09619); test: PDGF-induced PDGFR phosphorylation in PASMC; type: cell-based; settings: treatment as for HUVEC
T1 construct: host or cells: PASMC (pulmonary aortic smooth muscle cells)
Experimental: as §1
Immunoprecipitation and immunoblotting procedures. After treatment, cells were washed once with phosphate-buffered saline (PBS) containing 1 mM sodium orthovanadate and were incubated in the same medium for 1 h at 4° C. The cells were solubilized on ice in lysis buffer (150 mM NaCl, 10 mM Tris-HCl, pH 7.4, 1 mM EDTA, 1 mM EGTA, 0.5% Nonidet P-40, 1% Triton X-100) containing 1 mM sodium orthovanadate. The cells were then scraped from the culture dishes and the resulting lysates were clarified by centrifugation at 10,000 g for 10 min. Protein concentrations were determined using the micro bicinchoninic acid method. For immunoprecipitation studies, lysates were clarified by a 1 h incubation at 4° C. with a mixture of Protein A/Protein G Sepharose beads. […]

NFkB pathway = test: SEAP gene-reporter assay in U-87 glioma cells, NFkB element; type: cell-based; settings: alkaline phosphatase activity in extracellular media
Experimental: (§3) In order to investigate the potential intracellular pathways triggered by the PCK3145 derivative, a gene-reporter assay using the SEAP (Secreted Alkaline Phosphatase) Mercury Profiling Kit (CLONTECH) was performed in glioma cells (U-87). This assay enables the monitoring of transcription factors that are triggered by a particular experimental condition by assaying the alkaline phosphatase activity in the extracellular media. […] The induction of the MAPK pathway by the PCK3145 derivative is further confirmed by the rapid and transient induction of ERK phosphorylation between 5-10 minutes (FIG. 8B) and is shown to be dose-dependent (FIG. 8C). Finally, the effects of the PCK3145 derivative were also compared to those of a scrambled peptide.

ERK [2] = test: VEGF-induced ERK phosphorylation in BAEC; type: cell-based; settings: data not shown
Experimental: as §2
The total amount of ERK in each sample of cells was unaffected by the PCK3145 derivative (FIG. 4A). Although, PCK3145 derivative also seemed to stimulate ERK phosphorylation induced by S1P in HUVEC (FIG. 4A), that result was found not statistically significant.

[3] = tested on: constitutive secretion pathway; test: SEAP gene-reporter assay in U-87 glioma cells, constitutively expressed SEAP; type: cell-based
Experimental: as §3

ERK [4] = test: Intrinsic effect on ERK phosphorylation (western blot); type: cell-based
Experimental: as §3

T1 sequence (P09619 33-1106): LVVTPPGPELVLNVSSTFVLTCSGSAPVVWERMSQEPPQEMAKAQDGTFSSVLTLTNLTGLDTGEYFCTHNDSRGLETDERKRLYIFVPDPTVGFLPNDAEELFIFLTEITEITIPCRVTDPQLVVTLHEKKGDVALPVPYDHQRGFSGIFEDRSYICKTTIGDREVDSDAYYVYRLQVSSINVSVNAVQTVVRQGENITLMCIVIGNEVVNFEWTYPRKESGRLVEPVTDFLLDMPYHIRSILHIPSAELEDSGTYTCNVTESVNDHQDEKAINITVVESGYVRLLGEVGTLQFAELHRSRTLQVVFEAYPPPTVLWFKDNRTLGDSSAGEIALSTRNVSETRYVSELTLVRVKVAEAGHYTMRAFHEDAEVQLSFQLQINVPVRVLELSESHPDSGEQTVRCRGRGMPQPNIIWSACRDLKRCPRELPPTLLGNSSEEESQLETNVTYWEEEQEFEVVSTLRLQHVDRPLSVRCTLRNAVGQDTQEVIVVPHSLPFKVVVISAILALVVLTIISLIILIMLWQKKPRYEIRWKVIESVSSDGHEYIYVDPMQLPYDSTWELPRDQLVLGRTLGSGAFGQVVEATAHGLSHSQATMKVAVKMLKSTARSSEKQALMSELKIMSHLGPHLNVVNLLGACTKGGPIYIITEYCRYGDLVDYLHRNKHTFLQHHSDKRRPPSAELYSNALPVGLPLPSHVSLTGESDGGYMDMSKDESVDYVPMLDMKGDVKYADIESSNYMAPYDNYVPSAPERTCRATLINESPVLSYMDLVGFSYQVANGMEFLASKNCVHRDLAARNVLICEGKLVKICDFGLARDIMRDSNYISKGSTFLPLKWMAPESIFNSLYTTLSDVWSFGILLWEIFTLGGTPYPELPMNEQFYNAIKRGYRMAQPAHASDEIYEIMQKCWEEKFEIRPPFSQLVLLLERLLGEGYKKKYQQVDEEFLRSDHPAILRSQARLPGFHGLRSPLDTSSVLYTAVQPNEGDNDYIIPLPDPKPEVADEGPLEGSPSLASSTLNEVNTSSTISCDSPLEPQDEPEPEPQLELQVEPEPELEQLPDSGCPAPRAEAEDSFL

PDGFR phosphorylation induced by PDGF (PDGF receptor (PDGFR)): inhibition
Sequence: EWQTDNCETCTCYET (cysteine pairing not given here)
time-course of effect on VEGF-induced ERK phosphorylation (ERK [1]; HUVEC, 3 and 24 hrs): necessity of a long term action
total amount of ERK (ERK [1]; HUVEC, each sample of cells): unaffected
dose-response of ERK phosphorylation by VEGF (ERK [1]; HUVEC, increasing doses): gradually inhibit
ERK phosphorylation induced by VEGF (ERK [1]; serum-starved HUVEC, 300 μg/ml for 24 h, then VEGF): specific inhibitory effect; also recorded: comparable to that of PD98059
ERK phosphorylation induced by bFGF (ERK [1]; serum-starved HUVEC, 300 μg/ml for 24 h, then bFGF): not that induced by bFGF
SEAP reporter, NFkB pathway (NFkB pathway): triggers significantly
ERK phosphorylation induced by VEGF (ERK [2]): inhibitory effect was confirmed
secretion of the constitutively expressed SEAP [3]: inhibited
dose dependence of induction of ERK phosphorylation (ERK [4]; dose-response): dose-dependent
time of rapid and transient induction of ERK phosphorylation (ERK [4]; time-course, no growth factor): 5 to 10 min
